Assay [1] deals with HaCaT keratinocyte cells. The experiment in a line: BrdU ELISA assay of turnover rate (DNA replication). The class given is cell-based, human. The note with it: 48 hr incubation.
Protocol: Turnover rate was measured by BrdU. […] Staurosporine served as positive control. Mean±SEM; n=3. *p<0.05 for reduction from untreated control.
HaCaT cells were incubated without or with the indicated concentrations of selenium cysteine for 48 hr. Turnover rate was measured by BrdU. […] Mean±SEM; n=3. *p<0.05 for reduction from untreated control.
To further investigate the impact of selenium methionine on the cells, the DNA replication rate of the cells was monitored by the BrdU assay. […] The assay was carried out in triplicate.
The BrdU ELISA assay was performed according to kit manufacturer instructions. Briefly, during the final 16 hours of culture, BrdU was added to each well. The cells were fixed, permeabilized, and DNA denatured by the addition of buffers. BrdU monoclonal antibody was pipetted into the wells and allowed to bind for one hour. Colorimetric evaluation of the turnover rate was recorded by ELISA reader. The BrdU assay captures a 16 hr window, which gives a wide view on the proliferation rate of the cells.
To further investigate the impact of selenium cysteine on the cells, the DNA replication rate of the cells was monitored by a BrdU incorporation assay. The purpose was to determine the ability of selenium cysteine at selected concentrations and times to reduce HaCaT keratinocytes cells turnover rate. The assay was carried out in triplicates. The positive control was stautosporine (100 nM). The cells were seeded in 6- or 96-well plates in complete growth medium at 37° C. with 5% CO2 under humidified atmosphere. The cells were incubated with or without selenium cysteine for the selected time points and concentrations determined in Example 6. BrdU incorporation was performed at the selected concentration and a 48 hr time point was chosen for the BrdU assay.
For assay [2], the system named is HaCaT keratinocyte cells. The experiment in a line: Cell cycle analysis by flow cytometry (FACS). The settings on record: HaCaT cells synchronized by serum deprivation, 24 hr incubation. The class given is cell-based, human. For orientation: Flow cytometry measures light scatter and fluorescence of single cells or particles in a stream.
Protocol: HaCaT keratinocyte cells were synchronized by serum deprivation for 24 hr. […] Cell cycle was measured by FACS analysis. […] Staurosporine (100 nM) served as positive control. Mean±SEM; n=3. *p<0.05 for reduction from untreated control.
BrdU and FACS analyses were performed in one selected concentration. Two time points (24 hr and 48 hr) were chosen for the flow cytometry and one for the BrdU assay. In order to induce culture synchronization, serum-free medium was used prior of BrdU/FACS analyses in the 24 hr treatment groups.
The effect of selenium methionine on cell cycle was analyzed by flow cytometry (FACS). At the end of the treatment, the cells were harvested by trypsinization and counted. Approximately 1.3×10^6 cells were transferred to a new tube, centrifuged for 5 min at 1500 rpm (2-8° C.), and suspended in 0.5 ml of ice cold PBS. Then, the cells were fixed by adding 2.5 ml of 70% ethanol (2-8° C.) in a dropwise manner. The cells were stored at 2-8° C. for 48 hr at this stage. After 30 min of incubation, the samples were washed 3×1 mL PBS and 0.5 mL of ribonuclease stock solution (0.2 mg/mL supplemented with 0.1% (v/v) Triton x-100 in PBS) were added to the cell pellet for 1 hr at rt. This step was performed to ensure only DNA, not RNA, was stained. 0.5 mL of propidium iodide (PI, 100 μg/ml) was added to the samples still suspended in the ribonuclease stock solution. […]
The test system of assay [3] is HaCaT cells. As to the kind of experiment: MTT cell viability assay, dose response and time course. The class given is cell-based, human. The note with it: for reduction of keratinocyte turnover or proliferation rate as determined by MTT cell viability tests: 72 hours. The protocol:
Cell viability was measured by MTT assay.
Untreated cells were used as negative controls. […] A proper blank control was subtracted from the measurements.
The assay was carried out in triplicate. Untreated cells were used as negative controls.
A general note: Tetrazolium dyes change colour on reduction, which living cells bring about.

Assay [4] deals with Human stratum corneum. As to the kind of experiment: Thiol degradation assay ex vivo in human skin tissue. The settings on record: 2 hr.
Protocol: Then, the mixtures were analyzed for free thiol moieties concentration.
The skin was cleaned, washed with PBS, and then the epidermis was peeled. The epidermis was incubated with 100 mL of 0.005% trypsin (in PBS) at 37° C. overnight. The stratum corneum was washed with HPLC grade water and transferred to a clean Eppendorf tube. The water was evaporated by SpeedVac and the stratum corneum was washed once again with ice cold hexane to exclude residuals lipids in the fraction. The solvent was removed by SpeedVac.
The stratum corneum pieces were weighed in order to determine their dry weight. 50 mg of dried stratum corneum was dissolved in 1M NaOH and mixed thoroughly for 1 hr. Stratum corneum was treated with or without the test items for 2 hr. L-acetylcysteine containing free thiol moieties served as positive control. To isolate the free thiol moieties from the mixture, the samples or blank (50 μl) were incubated with equal volume of TCA (trichloroacetic acid) for 5 min. Then, the tubes were centrifuge for 15 min at 10,000 rpm at room temperature. The pellet was evaluated. Ellman's reagent stock solution (3 mM) was prepared in methanol. […] The 96-well plates were incubated for 5 min at RT, mixed, and the optical absorbance was recorded at 412 nm. A standard calibration curve was read simultaneously without the TCA precipitation step.
Assay [5] deals with HaCaT keratinocyte cells. The experiment in a line: Caspase-3 apoptosis assay. The class given is cell-based, human. The note with it: HaCaT keratinocytes cell line, 72 hours. The protocol:
Apoptosis was measured by the caspase-3 assay. Results are shown as percent of control. Staurosporine (100 nM) served as positive control. Mean±SEM; n=3. *p<0.05 for reduction from untreated control. HaCaT cells were seeded in a 96 well plates in concentration of 0.3×10^6 cells/mL in […] in complete growth medium (DMEM supplemented with 10% FBS and antibiotics). […] The assay was carried out in triplicates. Untreated cells were used as negative controls. At the end of each incubation period, cell viability and the extent of apoptosis were measured by MTT and Caspase-3 assays, respectively. A proper blank control was subtracted from the measurements.

In the case of `O=C(O)c1ccccc1O` [SA, Salicylic acid], the “effect on proliferation of the cells (DNA replication, BrdU)” value in assay [1] was “does not affect the proliferation”. Further, the “effect on cell cycle (cell arrest properties)” value in assay [2] was “no cell arrest properties”. Besides, in assay [3], the “reduction of keratinocyte turnover or proliferation rate as determined by MTT cell viability tests” value (shortened to “reduction … by MTT cell viability tests”) was “no dose dependent effect”. In addition, in assay [4], the “elevation in thiol degradation assay releasing free SH moieties” value is reported as “caused elevation”. For the same molecule, in assay [5], the “activation of caspase-3 apoptosis marker (apoptotic effect)” value is “significant increase”.
With `CCCCCCCCCCCCOS(=O)(=O)[O-].[Na+]` [SDS], the “cell viability (MTT)” value in assay [3] (positive control 0.1%) was “significantly decreased cell viability”.
For the molecule `CN[C@@H]1C[C@H]2O[C@@](C)([C@@H]1OC)n1c3ccccc3c3c4c(c5c6ccccc6n2c5c31)C(=O)NC4` [staurosporine], the “effect on proliferation of the cells (DNA replication, BrdU)” value in assay [1] is given as “dose-dependent reduction”.
selenium cysteine: in assay [1], the “reduction of proliferation of keratocytes (BrdU, DNA replication)” value is “more than 90%”. In addition, in assay [3], the “reduction … by MTT cell viability tests” value was “significant dose-dependent effect”.
In the case of selenium methionine, the “reduction of proliferation of keratocytes (BrdU, DNA replication)” value in assay [1] is given as “up to 60%”. Further, in assay [2], the “effect on cell cycle (cell arrest properties)” value was “elongation of the S phase in the cell cycle and lowered M phase”. In assay [3], the “reduction … by MTT cell viability tests” value is listed as “significant dose-dependent effect”. In addition, the “elevation in thiol degradation assay releasing free SH moieties” value in assay [4] is reported as “up to 35%”. The “activation of caspase-3 apoptosis marker (apoptotic effect)” value in assay [5] is reported as “significant increase”.

(Values after patent publication US20230013824A1, “COMPOSITIONS FOR THE TREATMENT OF HYPERKERATOSIS DISORDERS” (Azura Ophthalmics Ltd., priority 2016, published 2023).)
